This is an account of results in paper PMC12280925, “Structure-based discovery of positive allosteric modulators of the A1 adenosine receptor” (Proceedings of the National Academy of Sciences of the …, 2025).

Changes are numbered by the printed parent chain. pKd: −log10 of the molar value.

The target in data set [1] is T1, A1R S246^6.47A mutant (Homo sapiens, UniProt P30542, S246A).
T1 construct: expressed in transfected cells; host or cells: FlpInCHO cells, stably transfected
T1 sequence (P30542 1-326 S246A): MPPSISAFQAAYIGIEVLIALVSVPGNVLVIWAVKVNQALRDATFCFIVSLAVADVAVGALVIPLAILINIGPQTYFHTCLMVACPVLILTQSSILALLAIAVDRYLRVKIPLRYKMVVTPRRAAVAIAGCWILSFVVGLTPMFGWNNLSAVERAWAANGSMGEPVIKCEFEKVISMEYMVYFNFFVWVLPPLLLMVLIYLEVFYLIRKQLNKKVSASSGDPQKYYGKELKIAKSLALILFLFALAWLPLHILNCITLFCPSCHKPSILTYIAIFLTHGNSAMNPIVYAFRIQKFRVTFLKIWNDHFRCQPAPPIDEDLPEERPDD
Set-up: method as in PMID 34497422. As to conditions: cited from earlier work.

The target of data set [2] is T2, A1R allosteric site (A1R-FlpINCHO cells, wild type) (Homo sapiens, UniProt P30542).
T2 sequence (P30542 1-326): T1 sequence (P30542 1-326 S246A) with A246S
The data set can be described thus: Whole-cell [3H]DPCPX interaction binding with NECA, allosteric ternary complex model.
Description: [^3H]DPCPX (8-cyclopentyl-1,3-dipropylxanthine, [dipropyl-2,3-^3H(N)]) whole-cell binding assays were performed on FlpINCHO cells stably expressing either WT (nontagged or 3xHA-tagged) or mutant 3xHA-A1R. Cells were seeded into a transparent 96-well plate at 40,000 cells/well in DMEM containing 10% FBS. Following 8 h incubation in a humidified environment at 37 °C in 5% CO2, cells were washed and maintained in serum-free DMEM for approximately 18 h at 37 °C in 5% CO2. […] Assays were terminated by washing twice with 100 μL/well cold phosphate-buffered saline, followed by the addition of 100 μL OptiPhase Supermix™ scintillation cocktail and bound radioactivity measured using a MicroBeta^2 ™ plate counter (PerkinElmer).
Equilibrium binding interaction experiments were fitted to the following allosteric ternary complex model.[3] Y=BmaxA/A+KAKB/αAB+KB1+[I]/KI+[B]/KB+αII[B]/KIKB,
A cooperativity factor α > 1 describes positive cooperativity; a value 0 < α < 1 describes negative cooperativity, and a value of α = 1 describes neutral cooperativity.

Details of data set [3]: method as in PMID 34497422. As to conditions: in vitro liver microsome assays; cited from earlier work. (In general: Liver microsomes are vesicles of endoplasmic reticulum, rich in cytochrome P450 enzymes.)
Data set [4] deals with T3, A1R (A1R-FlpInCHO cells) (Homo sapiens, UniProt P30542).
T3 sequence (P30542 1-326): T1 sequence (P30542 1-326 S246A) with A246S
The data set can be described thus: NECA/allosteric ligand interaction in cAMP accumulation, operational model of allosterism. Format: cell-based. The method, then:
(§1) FlpInCHO cell lines and cortical neuron cells were seeded into transparent 96-well plates at 20,000 cells/well and incubated for 16 to 20 h in a humidified incubator at 37 °C in 5% CO2. […] Compounds were added at either a single concentration (10 or 30 μM) or a concentration range for full interaction studies (3 to 30 μM), and plates were incubated for 30 to 60 min at 37 °C in a humidified chamber. […] After 30 min incubation at 37 °C, the reaction was terminated by rapid removal of buffer and the addition of 50 μL/well cold ethanol. […] Agonist concentration–response curves were normalized to the response mediated by 3 µM forskolin […].
[5] E=EmτAAKB+αβ[B]+τB[B]KA^n/AKB+KAKB+[B]KA+α[A][B]^n+τAAKB+αβ[B]+τB[B]KA^n
Orthosteric agonist and allosteric ligand affinity were constrained to values determined from radioligand binding.

Data set [5] concerns the target T4, A1R G279^7.44A mutant (Homo sapiens, UniProt P30542, G279A).
T4 construct: expressed in transfected cells; host or cells: FlpInCHO cells, stably transfected
T4 sequence (P30542 1-326 G279A): T1 sequence (P30542 1-326 S246A) with A246S, G279A
Set-up: method as in PMID 34497422. The following applies: cited from earlier work.

On the set-up of data set [6]: method as in PMID 34497422. As to conditions: rat model; cited from earlier work.
Data set [7] concerns the target T3, A1R (A1R-FlpInCHO cells). The data set can be described thus: Inhibition of forskolin-stimulated cAMP accumulation: NECA potency ± compound and compound alone. The format is cell-based. The method, then:
as §1
Response=Basal+Emax-Basal×A/EC50+A,
On the technique in general: cAMP levels reflect the balance of adenylyl cyclase and phosphodiesterase activity.

Regarding `Nc1scc(-c2cc(C(F)(F)F)cc(C(F)(F)F)c2)c1C(=O)c1ccc(Cl)cc1` [compound 1, reference compound], the “effect of binding site mutation on affinity” value in data set [1] and in data set [5] was “small (four- to seven-fold) but significant reduction” in each case. Also, the “allosteric ligand affinity (pKB)” value in data set [2] (allosteric ternary complex model, n = 4) is 5.18 ± 0.21. Besides, the “binding cooperativity with NECA (logα)” value in data set [2] (allosteric ternary complex model, orthosteric agonist NECA) was determined as 2.09 ± 0.22. The “positive cooperativity between PAM and NECA” value in data set [2] (approximate, from logα) is “approximately 100 fold”. Also, in data set [2] (approximate, from pKB, read-out: affinity for the A1R allosteric site), the pKd is about 5.10. In addition, in data set [3], the “metabolism in liver microsomes” value was “rapid metabolism”. The “allosteric ligand efficacy (logτB)” value in data set [4] (allosteric agonism in cAMP) was 0.56 ± 0.06. In addition, in data set [4] (cAMP), the “functional cooperativity with NECA (logαβ)” value came out at 0.78 ± 0.15. Besides, in data set [6], the “in vivo analgesic efficacy” value is recorded as “in vivo analgesic efficacy”. The “inhibition of 3 μM forskolin-stimulated cAMP accumulation” value in data set [7] (30 μM compound in the absence of NECA, for NECA: maximal response) was 83%. Besides, in data set [7] (30 μM, absence of NECA), the “functional response relative to NECA maximal response” value is recorded as “approximately 80%”.
